Results as given in publication PMC7031696 (Cell chemical biology, 2019).
pIC50: −log10 of the molar value. Where two headings read alike, the source gives them in different places. Each block holds one molecule with its values, some of them ahead of it.

Experiments:
[1] = tested on: Plasmodium falciparum 3D7-A10 parasites; experiment: Stage specificity assay (8-h exposure of synchronized stages, IC50^8h); format: cell-based; conditions: for pIC50: Plasmodium falciparum
[2] = tested on: asynchronous 3D7-A10 parasite cultures; experiment: Standard 72-h exposure asexual blood stage susceptibility assay (IC50^72h); format: cell-based, Plasmodium falciparum; conditions: Plasmodium falciparum, 3D7, 72 h, read-out: Overall (72hr assay) Mean IC50 (IC50^72h)
[3] = tested on: 3D7-MR4 trophozoite parasite-infected RBCs; conditions: 10 × IC50^72h; ref Allman et al., 2016; cited from earlier work
[4] = tested on: 3D7-MR4 trophozoite parasite-infected RBCs; experiment: Metabolomic profiling (hydrophilic metabolite changes, UHPLC-MS); format: cell-based, Plasmodium falciparum

Compound: CCN(CC)CCCC(C)Nc1ccnc2cc(Cl)ccc12 (stereo not drawn) [Chloroquine, reference compound]
pIC50 ([1]; 3D7, read-out: Early rings Mean IC50 (IC50^8h)): 7.75
pIC50 ([1]; 3D7, read-out: Early trophozoites Mean IC50 (IC50^8h)): 7.76
pIC50 ([1]; 3D7, read-out: IC50^8h values): > 6.52
pIC50 ([1]; 3D7, read-out: Late rings Mean IC50 (IC50^8h)): 7.73
pIC50 ([1]; 3D7, read-out: Late trophozoites Mean IC50 (IC50^8h)): 7.52
pIC50 ([1]; 3D7, read-out: Schizonts Mean IC50 (IC50^8h)): 7.22
pIC50 [2]: 8.23
increased levels of dAMP, dUTP, cytidine, xanthosine, and N-acetyl-lysine [3]: > 2 fold
peptide levels (hemoglobin catabolism signature) [3]: more modest decrease in peptide levels

pIC50 [2]: 8.14
Compound: CC(C)C[C@@H](/C=C/S(C)(=O)=O)NC(=O)[C@H](CC(C)C)NC(=O)[C@H](Cc1c[nH]c2ccccc12)NC(=O)CN1CCOCC1 [WLL-vs, reference compound]
pIC50 ([1]; 3D7, read-out: Early rings Mean IC50 (IC50^8h), 8-h exposure 0–8 hr, 3D7-A10, survival at 60 h): 7.63
pIC50 ([1]; 3D7, read-out: Early trophozoites Mean IC50 (IC50^8h), 8-h exposure 16–24 hr, 3D7-A10, survival at 60 h): 7.24
pIC50 ([1]; 3D7, read-out: Late rings Mean IC50 (IC50^8h), 8-h exposure 8–16 hr, 3D7-A10, survival at 60 h): 7.53
pIC50 ([1]; 3D7, read-out: Late trophozoites Mean IC50 (IC50^8h), 8-h exposure 24–32 hr, 3D7-A10, survival at 60 h): 7.33
pIC50 ([1]; 3D7, read-out: Schizonts Mean IC50 (IC50^8h), 8-h exposure 32–40 hr, 3D7-A10, survival at 60 h): 7.30
Stage of peak activity (Figure 6) ([1]; period when the parasite was most susceptible (lowest IC50^8h)): ring stages
changes within the set of metabolites detected (low fold change group) ([4]; 10 × IC50^72h, 2.5 hr, trophozoites): did not induce major changes
Log2(fold changes) 3-phosphoglycerate ([4]; metabolite 3-phosphoglycerate, log2 fold change): -0.1339
Log2(fold changes) 4-Pyridoxic acid ([4]; metabolite 4-Pyridoxic acid, log2 fold change): 0.0000
Log2(fold changes) 4-aminobutyrate ([4]; metabolite 4-aminobutyrate, log2 fold change): -0.0215
Log2(fold changes) 4-phosphopantetheine ([4]; metabolite 4-phosphopantetheine, log2 fold change): 0.0000
Log2(fold changes) 4-phosphopantothenate ([4]; metabolite 4-phosphopantothenate, log2 fold change): -0.0913
Log2(fold changes) 5-aminopentanoic acid ([4]; metabolite 5-aminopentanoic acid, log2 fold change): 0.0000
Log2(fold changes) 5-methyl-THF ([4]; metabolite 5-methyl-THF, log2 fold change): 0.0000
Log2(fold changes) 5-phosphoribosyl-1-pyrophosphate ([4]; metabolite 5-phosphoribosyl-1-pyrophosphate, log2 fold change): -0.1277
Log2(fold changes) 6-phospho-D-gluconate ([4]; metabolite 6-phospho-D-gluconate, log2 fold change): -0.0373
Log2(fold change) HVDD ([4]; metabolite HVDD): -0.5028
Log2(fold change) Hydroxyisocaproic acid ([4]; metabolite Hydroxyisocaproic acid): 0.0000
Log2(fold change) IDP ([4]; metabolite IDP): 0.0000
Log2(fold change) IMP ([4]; metabolite IMP): 0.0400
Log2(fold change) Inositol ([4]; metabolite Inositol): 0.0000
Log2(fold change) Isopentyl-PP ([4]; metabolite Isopentyl-PP): 0.0000
Log2(fold change) L-arginino-succinate ([4]; metabolite L-arginino-succinate): 0.0000
Log2(fold change) LD ([4]; metabolite LD): 0.0000
Log2(fold change) Myristoyl/tetradecanoyl-CoA ([4]; metabolite Myristoyl/tetradecanoyl-CoA): 0.0000
Log2(fold change) N-Acetyl-L-alanine ([4]; metabolite N-Acetyl-L-alanine): -0.0632
Log2(fold change) N-acetyl-L-ornithine ([4]; metabolite N-acetyl-L-ornithine): -0.0046
Log2(fold change) N-acetyl-glucosamine-1/6-phosphate ([4]; metabolite N-acetyl-glucosamine-1/6-phosphate): -0.0854
Log2(fold change) N-acetyl-glutamate ([4]; metabolite N-acetyl-glutamate): 0.1610
Log2(fold change) N-acetyl-glutamine ([4]; metabolite N-acetyl-glutamine): 0.0000
Log2(fold change) N-carbamoyl-L-aspartate ([4]; metabolite N-carbamoyl-L-aspartate): 0.1147
Log2(fold change) NAD+ ([4]; metabolite NAD+): 0.0000
Log2(fold change) NADH ([4]; metabolite NADH): 0.3385
Log2(fold change) NADP+ ([4]; metabolite NADP+): -0.1225
Log2(fold change) NADPH ([4]; metabolite NADPH): 0.0976
Log2(fold change) O-acetyl-L-serine ([4]; metabolite O-acetyl-L-serine): 0.0000
Log2(fold change) Octoluse 8/1P ([4]; metabolite Octoluse 8/1P): 0.0000
Log2(fold change) Octoluse Bisphosphate ([4]; metabolite Octoluse Bisphosphate): -0.1506
Log2(fold change) PD ([4]; metabolite PD): -0.2643
Log2(fold change) PE ([4]; metabolite PE): -0.3236
Log2(fold change) PEE ([4]; metabolite PEE): -0.1344
Log2(fold change) PEEK ([4]; metabolite PEEK): 0.0000
Log2(fold change) PVNF ([4]; metabolite PVNF): -0.5296
Log2(fold change) Pyroglutamic acid ([4]; metabolite Pyroglutamic acid): 0.0000
Log2(fold change) Pyrophosphate ([4]; metabolite Pyrophosphate): 0.0000
Log2(fold change) Ribose-5-phosphate ([4]; metabolite Ribose-5-phosphate): -0.2996
Log2(fold change) S-adenosyl-L-homocysteine ([4]; metabolite S-adenosyl-L-homocysteine): -0.2761
Log2(fold change) S-adenosyl-L-methioninamine ([4]; metabolite S-adenosyl-L-methioninamine): 0.0000
Log2(fold change) S-adenosyl-L-methionine ([4]; metabolite S-adenosyl-L-methionine): 0.0000
Log2(fold change) S-methyl-5'-thioadenosine ([4]; metabolite S-methyl-5'-thioadenosine): 0.0000
Log2(fold change) SD ([4]; metabolite SD): -0.1301
Log2(fold change) SDL ([4]; metabolite SDL): 0.0000
Log2(fold change) SID ([4]; metabolite SID): -0.3691
Log2(fold change) Sedoheptulose bisphosphate ([4]; metabolite Sedoheptulose bisphosphate): -0.1909
Log2(fold change) Thiamine pyrophosphate ([4]; metabolite Thiamine pyrophosphate): 0.0000
Log2(fold changes) UDP-D-glucose ([4]; metabolite UDP-D-glucose, log2 fold change): -0.0066
Log2(fold changes) UDP-D-glucuronate ([4]; metabolite UDP-D-glucuronate, log2 fold change): -0.1270
Log2(fold changes) UDP-N-acetyl-glucosamine ([4]; metabolite UDP-N-acetyl-glucosamine, log2 fold change): -0.0647
Log2(fold changes) UDP ([4]; metabolite UDP, log2 fold change): -0.3774
Log2(fold changes) UMP ([4]; metabolite UMP, log2 fold change): 0.1341
Log2(fold changes) UTP ([4]; metabolite UTP, log2 fold change): -0.1532
Log2(fold change) hydroxyphenylpyruvate ([4]; metabolite hydroxyphenylpyruvate): 0.0000
Log2(fold change) hydroxyproline/Aminolevulinate ([4]; metabolite hydroxyproline/Aminolevulinate): -0.0172
Log2(fold change) hypoxanthine ([4]; metabolite hypoxanthine): 0.1957
Log2(fold change) indole ([4]; metabolite indole): 0.0000
Log2(fold change) inosine ([4]; metabolite inosine): 0.0926
Log2(fold change) isoleucine ([4]; metabolite isoleucine): 0.0638
Log2(fold change) lactate ([4]; metabolite lactate): -0.1762
Log2(fold change) leucine ([4]; metabolite leucine): -0.0424
Log2(fold change) lysine ([4]; metabolite lysine): 0.0000
Log2(fold change) malate ([4]; metabolite malate): -0.1070
Log2(fold change) maleic acid ([4]; metabolite maleic acid): -0.1330
Log2(fold change) methionine ([4]; metabolite methionine): 0.1427
Log2(fold change) myo-inositol ([4]; metabolite myo-inositol): 0.0000
Log2(fold change) nicotinamide mononucleotide ([4]; metabolite nicotinamide mononucleotide): 0.0000
Log2(fold change) nicotinate ([4]; metabolite nicotinate): 0.0441
Log2(fold change) ornithine ([4]; metabolite ornithine): 0.0000
Log2(fold change) orotate ([4]; metabolite orotate): -0.0939
Log2(fold change) orotidine-5'-phosphate ([4]; metabolite orotidine-5'-phosphate): -0.0654
Log2(fold change) oxaloacetate ([4]; metabolite oxaloacetate): 0.0000
Log2(fold change) p-aminobenzoate ([4]; metabolite p-aminobenzoate): 0.0000
Log2(fold change) p-hydroxybenzoate ([4]; metabolite p-hydroxybenzoate): 0.0000
Log2(fold change) pantothenate ([4]; metabolite pantothenate): -0.2167
Log2(fold change) phenylalanine ([4]; metabolite phenylalanine): 0.0156
Log2(fold change) phenylpyruvate ([4]; metabolite phenylpyruvate): 0.0000
Log2(fold change) phosphoenolpyruvate ([4]; metabolite phosphoenolpyruvate): -0.0337
Log2(fold change) prephenate ([4]; metabolite prephenate): 0.0000
Log2(fold change) proline ([4]; metabolite proline): -0.1122
Log2(fold change) pyridoxine ([4]; metabolite pyridoxine): 0.0678
Log2(fold change) pyruvate ([4]; metabolite pyruvate): -0.3415
Log2(fold change) riboflavin ([4]; metabolite riboflavin): 0.0000
Log2(fold change) ribose ([4]; metabolite ribose): 0.1290
Log2(fold change) ribose-phosphate ([4]; metabolite ribose-phosphate): -0.4836
Log2(fold change) ribulose-5-phosphate ([4]; metabolite ribulose-5-phosphate): -0.5090
Log2(fold change) serine ([4]; metabolite serine): -0.0671
Log2(fold change) sn-glycerol-3-phosphate ([4]; metabolite sn-glycerol-3-phosphate): -0.0482
Log2(fold change) succinate/Methylmalonic acid ([4]; metabolite succinate/Methylmalonic acid): 0.1064
Log2(fold change) succinyl-CoA/methylmalonyl-CoA ([4]; metabolite succinyl-CoA/methylmalonyl-CoA): -0.0054
Log2(fold change) taurine ([4]; metabolite taurine): 0.0000
Log2(fold change) thiamine ([4]; metabolite thiamine): 0.0000
Log2(fold change) threonine/homoserine ([4]; metabolite threonine/homoserine): -0.1507
Log2(fold change) thymidine ([4]; metabolite thymidine): 0.0000
Log2(fold changes) thymine ([4]; metabolite thymine, log2 fold change): 0.0000
Log2(fold changes) trehalose-6-Phosphate ([4]; metabolite trehalose-6-Phosphate, log2 fold change): 0.0000
Log2(fold changes) tryptophan ([4]; metabolite tryptophan, log2 fold change): -0.0680
Log2(fold changes) tyrosine ([4]; metabolite tyrosine, log2 fold change): -0.0190
Log2(fold changes) uridine ([4]; metabolite uridine, log2 fold change): 0.0000
